ChEMBL document CHEMBL5674860, “Optimized Dual-Glo Assay to identify co-culture-induced drug vulnerabilities in 3D CRC models” (2024)

Assays:
Assay type in all cases: functional, Homo sapiens
Parameters in all cases: dose or concentration left out as unconfirmed
Colon cancer organoid [1] = assay: Optimized Dual-Glo assay to identify co-culture induced drug vulnerabilities using donated chemical probes and chemogenomics kinase set in O06 CRC organoid and F06 CAF mono and co-culture. […] Cell viability is reported both mono and co-culture models.
Colon cancer organoid [2] = assay: Optimized Dual-Glo assay to identify co-culture induced drug vulnerabilities using donated chemical probes and chemogenomics kinase set in O20 CRC organoid and F20 CAF mono and co-culture. […] Cell viability is reported both mono and co-culture models.
Colon cancer organoid [3] = assay: Optimized Dual-Glo assay to identify co-culture induced drug vulnerabilities using donated chemical probes and chemogenomics kinase set in O14 CRC organoid and F14 CAF mono and co-culture. […] Cell viability is reported both mono and co-culture models.
[4] = Culture type Co-Culture, Transduced with Lucferase2-P2A-EGFP lentivirus
[5] = Culture type Co-Culture, Transduced with Renilla-dsRed lentivirus
[6] = Culture type Mono-Culture, Transduced with Lucferase2-P2A-EGFP lentivirus
[7] = Culture type Mono-Culture, Transduced with Renilla-dsRed lentivirus

Row | SMILES | Cell Viability (Colon cancer organoid [1]; [4]) [%] | Cell Viability (Colon cancer organoid [1]; [5]) [%] | Cell Viability (Colon cancer organoid [1]; [6]) [%] | Cell Viability (Colon cancer organoid [1]; [7]) [%] | Cell Viability (Colon cancer organoid [2]; [4]) [%] | Cell Viability (Colon cancer organoid [2]; [5]) [%] | Cell Viability (Colon cancer organoid [2]; [6]) [%] | Cell Viability (Colon cancer organoid [2]; [7]) [%] | Cell Viability (Colon cancer organoid [3]; [4]) [%] | Cell Viability (Colon cancer organoid [3]; [5]) [%] | Cell Viability (Colon cancer organoid [3]; [6]) [%] | Cell Viability (Colon cancer organoid [3]; [7]) [%]
1 | Cc1ncsc1-c1ccc(CNC(=O)[C@@H]2C[C@@H](O)CN2C(=O)[C@@H](NC(=O)CCCCNC(=O)c2ccc(-c3ccc(N4CCN(C)CC4)c(NC(=O)c4c[nH]c(=O)cc4C(F)(F)F)c3)cc2)C(C)(C)C)cc1 | 81.8894 | 85.2238 | 101.813 | 95.3362 | 171.817 | 86.697 | 106.449 | 104.541 | 94.9121 | 103.946 | 89.8204 | 93.3904
2 | FC(F)c1nc2ccccc2n1-c1nc(N2CCOCC2)nc(N2CCOCC2)n1 [ZSTK-474] | 29.4296 | 101.088 | 21.0208 | 93.8001 | 123.987 | 95.7276 | 79.3506 | 60.5776 | 66.4922 | 94.4439 | 94.5351 | 81.6405
3 | CN(C)C(=O)c1sc2nc(N3CCC(S(C)(=O)=O)CC3)cc(C(F)(F)F)c2c1N [BI-5026] | 108.851 | 103.89 | 124.761 | 97.708 | 82.5801 | 112.021 | 96.6036 | 91.1442 | 89.3398 | 95.8994 | 89.8333 | 92.7462
4 | CO[C@H]1CNC[C@@H](OCC2CCC(F)(F)CC2)[C@@H]1Nc1ncc(-c2cncc(C)c2)c2cc(C)c(=O)[nH]c12 | 95.0954 | 138.476 | 98.6849 | 128.396 | 171.391 | 122.949 | 125.457 | 102.001 | 95.7966 | 88.7201 | 127.619 | 100.555
5 | COc1ccc(Oc2cc(NCCC(F)(F)F)c3ncc(-c4ccc(C(=O)NC5CC5)c(C)c4)n3n2)c(F)c1F [BAY-1217389] | 5.893 | 100.303 | 6.114 | 52.2962 | 10.1003 | 184.891 | 6.085 | 72.716 | 15.963 | 131.783 | 28.3238 | 88.2574
6 | O=C(Nc1cccnn1)N1CC(C/C=C/c2cncc(Oc3ccc(C(F)(F)F)cn3)n2)C1 | 131.321 | 196.307 | 116.585 | 92.4101 | 97.9448 | 112.944 | 119.523 | 106.69 | 84.7499 | 109.288 | 99.5215 | 99.7577
7 | Cc1cc(C)cc(C(=O)NOCCCCCC(=O)NO)c1 | 13.8956 | 454.718 | 14.9602 | 431.4 | 15.3163 | 402.959 | 16.4949 | 194.272 | 50.8168 | 381.601 | 48.3088 | 262.893
8 | Cc1cc(NC(=O)c2cccc(S(F)(F)(F)(F)F)c2)cc(-n2ccn3nc(-c4cccnc4)cc23)c1 [BAY-309] | 84.4525 | 147.367 | 49.1708 | 77.7093 | 122.672 | 127.793 | 129.399 | 97.9255 | 98.153 | 84.8781 | 155.954 | 76.6739
9 | CC[C@H](CO)Nc1nc(NCc2ccccc2)c2ncn(C(C)C)c2n1 [SELICICLIB] | 93.234 | 112.199 | 108.084 | 105.93 | 126.322 | 75.3934 | 94.0529 | 97.9285 | 135.109 | 107.454 | 106.101 | 84.912
10 | O=C(CCCCCCNC(=O)c1cnc(N(c2ccccc2)c2ccccc2)nc1)NO [RICOLINOSTAT] | 80.064 | 143.43 | 66.4985 | 158.366 | 158.742 | 130.22 | 89.6658 | 107.525 | 162.049 | 119.991 | 164.32 | 101.457
11 | Cc1sc2c(c1C)C(c1ccc(Cl)cc1)=N[C@H](CC(=O)OC(C)(C)C)c1nnc(C)n1-2 | 107.283 | 109.974 | 69.4816 | 97.8447 | 98.7176 | 113.657 | 118.396 | 90.6965 | 111.301 | 136.501 | 108.464 | 107.072
12 | Cc1cc2c(-c3ccco3)cnc(N[C@@H]3CCN(C)C[C@H]3C(=O)NC3CCCCC3)c2[nH]c1=O [GSK789] | 76.5976 | 134.369 | 59.8107 | 179.691 | 33.945 | 125.83 | 39.8308 | 103.931 | 80.165 | 245.195 | 48.5278 | 143.743
13 | C[C@H](c1ccc(F)cc1)N(Cc1ccc(Cl)c(C(=O)O)c1)C(=O)c1cnc2ccccc2c1 [PF-05257137] | 116.801 | 128.047 | 124.519 | 88.8687 | 147.232 | 103.742 | 109.057 | 106.822 | 77.6621 | 111.229 | 120.37 | 101.269
14 | Cn1c(-c2csc(C3CCN(CC4=NC5N=CC=CC5N4)CC3)n2)nc2ccccc21 (stereo unspecified) [BAY-070] | 29.934 | 49.5381 | 49.5158 | 105.274 | 41.8948 | 84.0468 | 78.1822 | 83.7423 | 71.6704 | 82.4795 | 106.637 | 95.1305
15 | CNc1cc(Oc2cc(C(=O)Nc3cc(N4CCN(C)CC4)cc(C(F)(F)F)c3)ccc2C)ncn1 | 72.9479 | 75.3319 | 138.287 | 104.785 | 162.082 | 75.5289 | 115.09 | 103.127 | 139.066 | 110.099 | 182.817 | 99.4408
16 | CN(C)C(=O)Cn1cc(-c2ccc(-c3cncc4ccccc34)cc2)cn1 | 83.3121 | 47.4852 | 74.4895 | 24.5354 | 97.1634 | 25.8647 | 131.343 | 32.5119 | 86.7541 | 14.5396 | 75.1396 | 23.2323
17 | Cc1sc2c(c1C)C(c1ccc(Cl)cc1)=N[C@@H](CC(=O)NCCCCCCCCNC(=O)COc1cccc3c1C(=O)N(C1CCC(=O)NC1=O)C3=O)c1nnc(C)n1-2 (stereo partly specified) | 5.4511 | 19.3995 | 5.5885 | 11.9931 | 2.002 | 74.9854 | 1.636 | 22.3036 | 2.938 | 15.8723 | 4.49 | 21.4216
18 | Cc1c(Nc2ccc(S(=O)(=O)N3CCN(C)CC3)cc2F)nc2ccc(-c3cnn(C4CC4)c3)cn2c1=O | 106.525 | 138.146 | 47.9872 | 100.536 | 100.034 | 149.535 | 70.24 | 85.351 | 89.9801 | 85.4908 | 97.5645 | 92.3914
